According to ChEMBL document CHEMBL4834451, “Anti-chronic myeloid leukemia activity and quantitative structure-activity relationship of novel thiazole aminobenzamide derivatives” (Bioorg Med Chem Lett, 2021):

Key:
[1] = Antiproliferative activity against imatinib-resistant human K562R cells by MTS assay; format: functional, cell-based
K562 = experiment: Antiproliferative activity against human K562 cells by MTS assay; format: functional, cell-based
L02 = experiment: Antiproliferative activity against human L02 cells by MTS assay; format: cell-based
BaF3 = experiment: Antiproliferative activity against mouse BaF3 cells harbouring BCR-ABL T315I mutant by MTS assay; format: cell-based
[2] = K562, read-out: pIC50 (converted)

| IC50 (K562) [µM] | IC50 (BaF3) [µM] | Compound | IC50 ([1]; K562, read-out: IC50) [µM] | IC50 (L02) [µM] | IC50 [1, 2] [µM] |
| --- | --- | --- | --- | --- | --- |
| > 100 | – | CCc1sc(Nc2cccc(C(=O)N[C@@H](Cc3ccccc3)C(=O)O)c2)nc1-c1ccc(Cl)cc1 | > 100 | > 100 | – |
| 28.7 | 19.8 | CC(=O)[C@H](Cc1ccccc1)NC(=O)c1cccc(Nc2nc(-c3ccc(C(F)(F)F)cc3)c(C)s2)c1 | 8.47 | > 100 | 8.47 |
| > 100 | – | Cc1ccc(-c2nc(Nc3cccc(C(=O)NCC(=O)O)c3)sc2C)cc1 | > 100 | > 100 | – |
| 87.8 | > 64 | Cc1sc(Nc2cccc(C(=O)NCC(=O)O)c2)nc1-c1ccc(F)cc1 | > 100 | > 100 | – |
| 51.4 | – | CC(=O)[C@H](Cc1ccccc1)NC(=O)c1cccc(Nc2nc(-c3ccc(Cl)cc3)c(C)s2)c1 | 11.3 | > 100 | 11.4 |
| 28.6 | 19.1 | CC(=O)[C@H](Cc1ccccc1)NC(=O)c1cccc(Nc2nc(-c3ccc(F)cc3)c(C)s2)c1 | 12.8 | > 100 | 12.9 |
| 83.6 | – | CC(=O)[C@H](Cc1ccccc1)NC(=O)c1cccc(Nc2nc(-c3ccc(C)cc3)c(C)s2)c1 | 14.7 | > 100 | 14.7 |
| 44.1 | – | Cc1sc(Nc2cccc(C(=O)N[C@@H](Cc3ccccc3)C(=O)O)c2)nc1-c1ccc(C(F)(F)F)cc1 | 78.1 | > 100 | 78.2 |
| > 100 | – | CCc1sc(Nc2cccc(C(=O)N[C@@H](Cc3ccccc3)C(C)=O)c2)nc1-c1ccccc1 | 17.2 | > 100 | 17.2 |
| > 100 | – | CCc1sc(Nc2cccc(C(=O)NCC(=O)O)c2)nc1-c1ccc(Cl)cc1 | > 100 | > 100 | – |
| > 100 | – | CCc1sc(Nc2cccc(C(=O)NCC(=O)O)c2)nc1-c1ccccc1 | > 100 | > 100 | – |
| > 100 | – | CC(=O)CNC(=O)c1cccc(Nc2nc(-c3ccc(C)cc3)c(C)s2)c1 | 50.2 | > 100 | 50.2 |
| > 100 | – | CCc1sc(Nc2cccc(C(=O)NCC(C)=O)c2)nc1-c1ccc(Cl)cc1 | > 100 | > 100 | – |
| 61.7 | – | CCc1sc(Nc2cccc(C(=O)NCC(C)=O)c2)nc1-c1ccccc1 | 17.6 | > 100 | 17.6 |
| 71.8 | – | Cc1sc(Nc2cccc(C(=O)NCC(=O)O)c2)nc1-c1ccc(O)cc1 | > 100 | > 100 | – |
| 40.9 | – | CC(=O)CNC(=O)c1cccc(Nc2nc(-c3ccc(C(F)(F)F)cc3)c(C)s2)c1 | 35.4 | > 100 | 35.4 |
| 57.6 | – | Cc1sc(Nc2cccc(C(=O)NCC(=O)O)c2)nc1-c1ccccc1 | 61.7 | > 100 | 61.7 |

| IC50 (K562) [µM] | IC50 (BaF3) [µM] | Compound | IC50 ([1]; K562, read-out: IC50) [µM] | IC50 (L02) [µM] | IC50 [1, 2] [µM] |
| --- | --- | --- | --- | --- | --- |
| 60.5 | – | Cc1sc(Nc2cccc(C(=O)NCC(=O)O)c2)nc1-c1ccc(Cl)cc1 | 71.5 | > 100 | 71.4 |
| > 100 | – | CC(=O)CNC(=O)c1cccc(Nc2nc(-c3ccc(Cl)cc3)c(C)s2)c1 | > 100 | > 100 | – |
| 48.8 | – | Cc1ccc(-c2nc(Nc3cccc(C(=O)N[C@@H](Cc4ccccc4)C(=O)O)c3)sc2C)cc1 | 63.4 | > 100 | 63.4 |
| 8.32 | 36.6 | CC(=O)[C@H](Cc1ccccc1)NC(=O)c1cccc(Nc2nc(-c3ccc(O)cc3)c(C)s2)c1 | 7.31 | > 100 | 7.31 |
| 51 | – | Cc1sc(Nc2cccc(C(=O)N[C@@H](Cc3ccccc3)C(=O)O)c2)nc1-c1ccc(Cl)cc1 | 48.1 | > 100 | 48.1 |
| 53.1 | – | CC(=O)[C@H](Cc1ccccc1)NC(=O)c1cccc(Nc2nc(-c3ccccc3)c(C)s2)c1 | 30.2 | > 100 | 30.2 |
| > 100 | – | CC(=O)CNC(=O)c1cccc(Nc2nc(-c3ccccc3)c(C)s2)c1 | > 100 | > 100 | – |
| 4.63 | – | Cc1ccc(NC(=O)c2ccc(CN3CCN(C)CC3)cc2)cc1Nc1nccc(-c2cccnc2)n1 [IMATINIB] | > 100 | > 100 | – |
| 79.5 | – | Cc1sc(Nc2cccc(C(=O)N[C@@H](Cc3ccccc3)C(=O)O)c2)nc1-c1ccc(F)cc1 | 41.3 | > 100 | 41.3 |
| 93.3 | – | CCc1sc(Nc2cccc(C(=O)N[C@@H](Cc3ccccc3)C(=O)O)c2)nc1-c1ccccc1 | 78 | > 100 | 78 |
| > 100 | – | CCc1sc(Nc2cccc(C(=O)N[C@@H](Cc3ccccc3)C(C)=O)c2)nc1-c1ccc(Cl)cc1 | 15.9 | > 100 | 15.9 |
| 66 | – | Cc1sc(Nc2cccc(C(=O)N[C@@H](Cc3ccccc3)C(=O)O)c2)nc1-c1ccccc1 | 86.8 | > 100 | 86.9 |
| > 100 | – | CC(=O)CNC(=O)c1cccc(Nc2nc(-c3ccc(F)cc3)c(C)s2)c1 | > 100 | > 100 | – |
| 66.3 | > 64 | CC(=O)CNC(=O)c1cccc(Nc2nc(-c3ccc(O)cc3)c(C)s2)c1 | 68.3 | > 100 | 68.2 |
| 34.8 | > 64 | Cc1sc(Nc2cccc(C(=O)NCC(=O)O)c2)nc1-c1ccc(C(F)(F)F)cc1 | > 100 | > 100 | – |
| 68.9 | – | Cc1sc(Nc2cccc(C(=O)N[C@@H](Cc3ccccc3)C(=O)O)c2)nc1-c1ccc(O)cc1 | 62.9 | > 100 | 63 |
